In ChEMBL document CHEMBL5465560, “Selectivity Literature for EUbOPEN Chemogenomic Library” (2024):
Blank lines part the entries; values can stand above or below the compound they belong to.

What was measured:
[1] = biological target: Protein-tyrosine kinase 2-beta (Homo sapiens) (UniProt Q14289); test: Selectivity interaction (KinomeScan (DiscoverX)) EUB0001049a PTK2B; settings: at 1 µM
[2] = biological target: Tyrosine-protein kinase SYK (Homo sapiens, UniProt P43405); test: Selectivity interaction (KinomeScan (DiscoverX)) EUB0000695a SYK; settings: at 100 nM
[3] = biological target: Endothelin-1 receptor (Homo sapiens) (UniProt P25101); test: Selectivity interaction (Eurofins CEREP Diversity Profile (receptors and ion channels)) EUB0000279b EDNRA; settings: at 10 µM
[4] = biological target: T1, 5-hydroxytryptamine receptor 3A (Homo sapiens) (UniProt P46098); test: Selectivity interaction (Panel of non-epigenetic targets (kinases, GPCRs, ion channels, and transporters, Eurofins) ) EUB0000271b HTR3A; settings: at 1 µM
T1 sequence (whole entry): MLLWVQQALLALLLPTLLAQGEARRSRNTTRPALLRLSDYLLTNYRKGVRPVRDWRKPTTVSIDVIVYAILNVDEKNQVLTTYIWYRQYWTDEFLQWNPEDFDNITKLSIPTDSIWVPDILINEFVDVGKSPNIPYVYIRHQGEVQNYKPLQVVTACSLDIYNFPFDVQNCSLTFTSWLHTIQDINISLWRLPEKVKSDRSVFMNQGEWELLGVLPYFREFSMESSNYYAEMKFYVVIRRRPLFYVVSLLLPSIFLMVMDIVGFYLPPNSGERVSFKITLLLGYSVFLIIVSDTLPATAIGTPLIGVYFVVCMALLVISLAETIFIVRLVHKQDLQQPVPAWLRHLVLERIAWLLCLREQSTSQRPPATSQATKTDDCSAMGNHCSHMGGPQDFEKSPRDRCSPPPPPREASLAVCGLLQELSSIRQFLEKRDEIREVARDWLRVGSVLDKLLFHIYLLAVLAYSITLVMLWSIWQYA

[5] = biological target: Phosphatidylinositol 4-phosphate 5-kinase type-1 alpha (Homo sapiens) (UniProt Q99755); test: Selectivity interaction (ProQinase) EUB0000171b PIP5K1A
[6] = biological target: Casein kinase II subunit alpha (Homo sapiens, UniProt P68400); test: Selectivity interaction (ProQinase) EUB0000171b CSNK2A1
[7] = biological target: T2, Serine/threonine-protein kinase Sgk3 (Homo sapiens) (UniProt Q96BR1); test: Selectivity interaction (KinomeScan (DiscoverX)) EUB0000045b SGK3
T2 sequence (whole entry): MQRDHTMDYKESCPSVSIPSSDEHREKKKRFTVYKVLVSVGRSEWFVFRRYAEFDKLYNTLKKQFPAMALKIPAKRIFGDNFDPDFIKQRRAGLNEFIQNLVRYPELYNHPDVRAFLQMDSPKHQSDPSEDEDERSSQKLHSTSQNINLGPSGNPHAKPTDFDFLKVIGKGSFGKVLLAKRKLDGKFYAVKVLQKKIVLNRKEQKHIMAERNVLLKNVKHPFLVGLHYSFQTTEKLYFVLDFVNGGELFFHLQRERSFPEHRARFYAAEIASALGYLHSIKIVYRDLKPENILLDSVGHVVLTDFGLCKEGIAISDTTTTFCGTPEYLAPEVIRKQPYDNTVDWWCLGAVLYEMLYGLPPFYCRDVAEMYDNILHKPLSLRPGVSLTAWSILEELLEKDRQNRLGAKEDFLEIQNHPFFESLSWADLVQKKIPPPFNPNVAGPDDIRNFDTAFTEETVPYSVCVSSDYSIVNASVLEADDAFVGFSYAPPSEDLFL

[8] = biological target: T3, Ephrin type-A receptor 1 (Homo sapiens) (UniProt P21709); test: Selectivity interaction (KinomeScan (DiscoverX)) EUB0001619a EPHA1; settings: at 1 µM
T3 sequence (whole entry): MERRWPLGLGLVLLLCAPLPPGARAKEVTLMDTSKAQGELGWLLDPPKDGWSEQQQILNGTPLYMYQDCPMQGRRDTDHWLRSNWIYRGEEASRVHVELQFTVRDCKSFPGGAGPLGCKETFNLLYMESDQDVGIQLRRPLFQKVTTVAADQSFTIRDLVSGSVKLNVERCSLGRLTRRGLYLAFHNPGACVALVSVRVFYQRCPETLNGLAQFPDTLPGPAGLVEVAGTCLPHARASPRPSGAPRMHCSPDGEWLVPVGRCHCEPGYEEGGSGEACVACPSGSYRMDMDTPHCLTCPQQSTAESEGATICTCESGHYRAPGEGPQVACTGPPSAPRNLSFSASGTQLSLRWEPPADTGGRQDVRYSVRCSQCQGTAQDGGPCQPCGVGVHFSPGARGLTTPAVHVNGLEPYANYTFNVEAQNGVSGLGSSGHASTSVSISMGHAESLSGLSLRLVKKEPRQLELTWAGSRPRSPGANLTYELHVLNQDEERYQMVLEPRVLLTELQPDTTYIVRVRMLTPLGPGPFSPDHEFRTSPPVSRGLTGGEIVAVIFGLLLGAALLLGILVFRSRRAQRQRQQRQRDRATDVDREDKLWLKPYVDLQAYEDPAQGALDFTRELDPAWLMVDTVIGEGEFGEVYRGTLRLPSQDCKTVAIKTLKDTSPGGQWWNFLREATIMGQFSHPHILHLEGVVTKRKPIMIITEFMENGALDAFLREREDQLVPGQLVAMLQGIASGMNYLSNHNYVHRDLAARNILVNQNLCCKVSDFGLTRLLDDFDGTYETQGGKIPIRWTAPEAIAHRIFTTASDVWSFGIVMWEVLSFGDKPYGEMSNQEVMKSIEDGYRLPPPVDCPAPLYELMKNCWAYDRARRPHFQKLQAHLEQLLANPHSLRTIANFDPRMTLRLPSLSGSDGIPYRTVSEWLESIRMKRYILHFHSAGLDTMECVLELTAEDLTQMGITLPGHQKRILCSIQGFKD

[9] = biological target: Receptor-type tyrosine-protein kinase FLT3 (Homo sapiens) (UniProt P36888); test: Selectivity interaction (KinomeScan (DiscoverX)) EUB0001619a FLT3; settings: at 1 µM
[10] = biological target: Rho-associated protein kinase 2 (Homo sapiens, UniProt O75116); test: Selectivity interaction (KinomeScan (DiscoverX)) EUB0000607a ROCK2; settings: at 10 µM
[11] = biological target: MAP/microtubule affinity-regulating kinase 3 (Homo sapiens) (UniProt P27448); test: Selectivity interaction (KinomeScan (DiscoverX)) EUB0000607a MARK3; settings: at 10 µM
[12] = biological target: Serine/threonine-protein kinase PRP4 homolog (Homo sapiens) (UniProt Q13523); test: Selectivity interaction (Kinase panel (KiNativ target engagement assay in Jurkat cells)) EUB0001635a PRPF4; assay type: cell-based; settings: Selectivity number of off-targets 0.0, Selectivity number of targets 233.0, Source Knowledge https://www.sciencedirect.com/science/article/pii/S2451945619300674?via%3Dihub, at 1 µM

Chain of Phosphatidylinositol 4-phosphate 5-kinase type-1 alpha (Homo sapiens) (Q99755 whole entry): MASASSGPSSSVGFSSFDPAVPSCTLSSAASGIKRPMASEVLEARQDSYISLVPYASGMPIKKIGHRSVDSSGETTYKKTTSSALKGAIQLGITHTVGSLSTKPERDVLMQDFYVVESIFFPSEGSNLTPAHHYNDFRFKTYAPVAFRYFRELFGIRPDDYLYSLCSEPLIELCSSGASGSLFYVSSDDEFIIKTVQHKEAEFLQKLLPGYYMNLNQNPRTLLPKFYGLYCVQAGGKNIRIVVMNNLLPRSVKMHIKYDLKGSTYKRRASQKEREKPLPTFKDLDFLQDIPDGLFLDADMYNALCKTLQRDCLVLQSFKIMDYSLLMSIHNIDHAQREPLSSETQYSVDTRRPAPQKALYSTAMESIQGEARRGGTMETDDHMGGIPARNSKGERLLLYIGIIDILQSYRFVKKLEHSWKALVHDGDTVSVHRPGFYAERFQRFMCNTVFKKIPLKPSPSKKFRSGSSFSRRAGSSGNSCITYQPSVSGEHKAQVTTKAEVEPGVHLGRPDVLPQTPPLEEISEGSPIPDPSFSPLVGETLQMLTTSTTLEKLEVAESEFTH
Chain of Casein kinase II subunit alpha (P68400 whole entry, looked up): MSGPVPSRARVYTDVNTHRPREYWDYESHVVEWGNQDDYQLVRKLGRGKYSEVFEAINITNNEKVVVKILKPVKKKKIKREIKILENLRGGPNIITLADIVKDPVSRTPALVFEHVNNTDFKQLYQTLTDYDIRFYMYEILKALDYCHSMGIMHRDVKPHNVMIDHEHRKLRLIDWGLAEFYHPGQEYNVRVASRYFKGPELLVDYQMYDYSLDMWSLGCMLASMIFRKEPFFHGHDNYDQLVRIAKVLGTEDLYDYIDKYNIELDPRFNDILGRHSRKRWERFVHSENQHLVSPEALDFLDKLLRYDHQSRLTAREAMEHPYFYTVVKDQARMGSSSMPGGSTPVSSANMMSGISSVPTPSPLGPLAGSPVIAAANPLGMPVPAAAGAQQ
Chain of Endothelin-1 receptor (Homo sapiens) (P25101 whole entry): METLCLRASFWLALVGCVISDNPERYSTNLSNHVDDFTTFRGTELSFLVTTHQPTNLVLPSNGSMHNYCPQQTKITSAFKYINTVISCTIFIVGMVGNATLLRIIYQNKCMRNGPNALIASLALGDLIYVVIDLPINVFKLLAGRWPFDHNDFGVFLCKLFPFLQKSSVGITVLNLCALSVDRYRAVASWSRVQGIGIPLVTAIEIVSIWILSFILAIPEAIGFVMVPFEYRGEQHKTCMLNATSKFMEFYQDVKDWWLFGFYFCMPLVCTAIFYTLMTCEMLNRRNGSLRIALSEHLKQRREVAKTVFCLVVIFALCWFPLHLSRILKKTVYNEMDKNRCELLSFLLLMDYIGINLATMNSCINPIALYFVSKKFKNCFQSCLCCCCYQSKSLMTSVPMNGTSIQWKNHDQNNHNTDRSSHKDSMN
Chain of MAP/microtubule affinity-regulating kinase 3 (Homo sapiens) (P27448 whole entry, looked up): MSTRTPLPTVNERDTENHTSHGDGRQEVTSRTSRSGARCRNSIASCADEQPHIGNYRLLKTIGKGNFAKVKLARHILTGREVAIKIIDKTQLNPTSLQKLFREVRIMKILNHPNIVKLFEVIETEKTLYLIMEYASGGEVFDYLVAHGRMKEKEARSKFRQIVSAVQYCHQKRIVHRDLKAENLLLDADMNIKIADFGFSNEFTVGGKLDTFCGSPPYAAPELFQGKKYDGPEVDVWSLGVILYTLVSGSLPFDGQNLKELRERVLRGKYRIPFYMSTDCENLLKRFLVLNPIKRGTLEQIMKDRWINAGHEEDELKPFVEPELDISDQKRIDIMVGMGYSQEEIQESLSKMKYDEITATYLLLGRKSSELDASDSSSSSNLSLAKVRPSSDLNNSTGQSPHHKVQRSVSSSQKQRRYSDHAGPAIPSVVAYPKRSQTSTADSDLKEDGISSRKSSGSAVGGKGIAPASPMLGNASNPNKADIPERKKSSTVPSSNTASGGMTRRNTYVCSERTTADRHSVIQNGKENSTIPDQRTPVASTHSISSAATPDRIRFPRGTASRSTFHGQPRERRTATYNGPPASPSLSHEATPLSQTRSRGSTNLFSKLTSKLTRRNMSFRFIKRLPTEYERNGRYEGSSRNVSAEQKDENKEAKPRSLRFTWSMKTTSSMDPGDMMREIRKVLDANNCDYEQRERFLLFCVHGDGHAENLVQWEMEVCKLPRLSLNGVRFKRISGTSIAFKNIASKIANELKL
Chain of Receptor-type tyrosine-protein kinase FLT3 (Homo sapiens) (P36888 whole entry): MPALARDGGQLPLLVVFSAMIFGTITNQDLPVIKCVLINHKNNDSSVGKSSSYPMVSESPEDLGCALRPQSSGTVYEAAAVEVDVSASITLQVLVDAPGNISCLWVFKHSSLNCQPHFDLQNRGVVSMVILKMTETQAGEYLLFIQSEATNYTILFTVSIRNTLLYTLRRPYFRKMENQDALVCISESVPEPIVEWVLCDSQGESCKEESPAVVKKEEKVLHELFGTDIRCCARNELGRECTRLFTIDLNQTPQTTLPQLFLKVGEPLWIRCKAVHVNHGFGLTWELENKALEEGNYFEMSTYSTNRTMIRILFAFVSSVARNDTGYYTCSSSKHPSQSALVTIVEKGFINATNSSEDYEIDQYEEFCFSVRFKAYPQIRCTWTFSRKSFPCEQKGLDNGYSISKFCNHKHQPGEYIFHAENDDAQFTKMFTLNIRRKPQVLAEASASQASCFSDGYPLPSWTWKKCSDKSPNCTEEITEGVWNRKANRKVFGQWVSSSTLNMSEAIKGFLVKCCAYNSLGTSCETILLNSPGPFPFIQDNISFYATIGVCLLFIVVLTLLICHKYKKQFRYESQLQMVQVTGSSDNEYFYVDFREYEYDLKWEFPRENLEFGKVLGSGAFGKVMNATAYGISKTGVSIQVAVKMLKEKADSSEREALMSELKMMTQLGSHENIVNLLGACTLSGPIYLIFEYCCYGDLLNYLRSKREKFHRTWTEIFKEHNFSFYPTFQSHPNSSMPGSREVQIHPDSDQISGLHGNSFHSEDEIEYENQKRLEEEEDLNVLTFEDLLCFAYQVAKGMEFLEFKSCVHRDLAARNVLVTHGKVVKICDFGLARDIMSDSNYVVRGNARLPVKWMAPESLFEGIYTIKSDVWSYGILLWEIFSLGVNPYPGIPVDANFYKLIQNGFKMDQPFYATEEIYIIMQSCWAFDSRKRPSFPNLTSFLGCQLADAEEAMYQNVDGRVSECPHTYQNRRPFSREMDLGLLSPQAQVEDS
Chain of Protein-tyrosine kinase 2-beta (Homo sapiens) (Q14289 whole entry, looked up): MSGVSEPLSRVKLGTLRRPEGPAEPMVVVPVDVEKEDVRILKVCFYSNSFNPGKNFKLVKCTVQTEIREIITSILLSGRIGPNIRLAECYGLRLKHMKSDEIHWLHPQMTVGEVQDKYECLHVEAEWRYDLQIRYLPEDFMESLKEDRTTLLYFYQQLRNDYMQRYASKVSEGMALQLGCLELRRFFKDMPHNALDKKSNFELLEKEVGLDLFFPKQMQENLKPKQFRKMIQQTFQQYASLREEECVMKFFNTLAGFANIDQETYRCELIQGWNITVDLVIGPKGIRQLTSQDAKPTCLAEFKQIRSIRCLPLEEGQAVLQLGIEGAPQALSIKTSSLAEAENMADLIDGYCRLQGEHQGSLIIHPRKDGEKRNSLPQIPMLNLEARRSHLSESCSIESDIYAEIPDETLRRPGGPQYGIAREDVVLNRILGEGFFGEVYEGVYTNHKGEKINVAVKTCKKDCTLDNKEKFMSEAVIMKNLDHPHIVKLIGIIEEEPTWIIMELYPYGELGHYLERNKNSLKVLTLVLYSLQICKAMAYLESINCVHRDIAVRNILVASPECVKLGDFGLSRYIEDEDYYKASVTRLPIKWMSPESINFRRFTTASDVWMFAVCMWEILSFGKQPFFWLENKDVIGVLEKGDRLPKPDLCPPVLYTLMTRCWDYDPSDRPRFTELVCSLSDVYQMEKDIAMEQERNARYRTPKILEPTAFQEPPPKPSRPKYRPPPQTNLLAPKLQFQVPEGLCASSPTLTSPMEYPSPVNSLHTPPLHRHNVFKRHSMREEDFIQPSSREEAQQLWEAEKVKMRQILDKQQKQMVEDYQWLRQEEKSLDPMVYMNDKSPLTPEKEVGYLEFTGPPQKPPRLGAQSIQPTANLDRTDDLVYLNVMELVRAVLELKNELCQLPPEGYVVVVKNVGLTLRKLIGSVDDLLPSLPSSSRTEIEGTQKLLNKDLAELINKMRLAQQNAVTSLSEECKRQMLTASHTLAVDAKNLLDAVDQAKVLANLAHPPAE

Structure (SMILES): COc1cc(Nc2nc(C)cc(-c3cnn4nc(OC)ccc34)n2)cc(C(F)(F)F)c1
- % of control [1]: 99%

Structure (SMILES): Cc1cc(F)c(C(=O)Nc2cccc(-c3nncn3C(C)C)n2)cc1-n1cnc(C2CC2)c1
- % of control [2]: 76%

- % of control [3]: 85%
Structure (SMILES): CC(=O)c1cc(-c2ccccc2OCC2CC2)c2ncccn12

Structure (SMILES): Cc1cc(C)cc([C@@H]2c3cc(C)ccc3NC(=O)CN2C(=O)c2ccc(Br)s2)c1
- % of inhibition [4]: -5%

- % of control ([5]; at 1 µM): 102%
- % of control ([5]; at 5 µM): 44%
- % of control ([6]; at 1 µM): 92%
- % of control ([6]; at 5 µM): 75%
Structure (SMILES): C=CC(=O)Nc1cccc(C(=O)Nc2ccc(Nc3cc(-c4[nH]c(SC)nc4C)ccn3)cc2)c1

Structure (SMILES): C=CC(=O)Nc1cc(-n2c(=O)ccc3cnc4ccc(-c5ccc(NS(C)(=O)=O)cc5)cc4c32)ccc1C
- % of control ([7]; at 1 µM): 100%
- % of control ([7]; at 10 µM): 100%

Structure (SMILES): N#Cc1cccc(-c2c[nH]c3ncnc(N4CCOCC4)c23)c1
- % of control [8]: 100%
- % of control [9]: 92%

Structure (SMILES): CNC(=O)Nc1ccc(-c2nc(N3CC4CCC(C3)O4)c3cnn(C4CCC5(CC4)OCCO5)c3n2)cc1
- % of control [10]: 100%
- % of control [11]: 92%

Structure (SMILES): C=CC(=O)Nc1ccc(C(=O)Nc2[nH]nc3c2CN(C(=O)N[C@H](CN(C)C)c2ccccc2)C3(C)C)cc1
- % of engagement [12]: -2.9%
